In the CheMixHub viscosity set:

Test: xn = mol fraction of the nth substance listed

CCCCCCN + Cc1ccccc1
303.15 K, 101 kPa
Conditions | viscosity [mPa·s]
x2 = 0.1238 | 0.6558
x2 = 0.2561 | 0.6124
x2 = 0.3598 | 0.5834
x2 = 0.4481 | 0.5588
x2 = 0.5709 | 0.5327
x2 = 0.6774 | 0.5177
x2 = 0.7639 | 0.5072
x2 = 0.8616 | 0.5035
x2 = 0.9319 | 0.5102

Oc1ccccc1 + O=Cc1ccccc1
308.15 K, 101.33 kPa
Conditions | viscosity [mPa·s]
x2 = 0.107 | 4.318
x2 = 0.303 | 2.944
x2 = 0.39 | 2.642
x2 = 0.499 | 2.401
x2 = 0.595 | 1.989
x2 = 0.706 | 1.55
x2 = 0.904 | 1.2

CCCO + CO
Conditions | viscosity [mPa·s]
293.15 K, 101 kPa, x2 = 0.25 | 1.379
293.15 K, 101 kPa, x2 = 0.5 | 1.015
293.15 K, 101 kPa, x2 = 0.75 | 0.825
293.15 K, 101.3 kPa, x2 = 0.174 | 1.78
293.15 K, 101.3 kPa, x2 = 0.339 | 1.45
293.15 K, 101.3 kPa, x2 = 0.51 | 1.16
293.15 K, 101.3 kPa, x2 = 0.741 | 0.857
293.15 K, 101.3 kPa, x2 = 0.873 | 0.711
298.15 K, 101 kPa, x2 = 0.25 | 1.243
298.15 K, 101 kPa, x2 = 0.5 | 0.931
298.15 K, 101 kPa, x2 = 0.75 | 0.775
298.15 K, 101.33 kPa, x2 = 0.1414 | 1.672
298.15 K, 101.33 kPa, x2 = 0.2419 | 1.483
298.15 K, 101.33 kPa, x2 = 0.3419 | 1.315
298.15 K, 101.33 kPa, x2 = 0.4462 | 1.159
298.15 K, 101.33 kPa, x2 = 0.5137 | 1.067
298.15 K, 101.33 kPa, x2 = 0.5731 | 0.992
298.15 K, 101.33 kPa, x2 = 0.7216 | 0.825
298.15 K, 101.33 kPa, x2 = 0.8038 | 0.744
298.15 K, 101.33 kPa, x2 = 0.8805 | 0.662
303.15 K, 101 kPa, x2 = 0.25 | 1.128
303.15 K, 101 kPa, x2 = 0.5 | 0.856
303.15 K, 101 kPa, x2 = 0.75 | 0.717
308.15 K, 101 kPa, x2 = 0.25 | 1.028
308.15 K, 101 kPa, x2 = 0.5 | 0.788
308.15 K, 101 kPa, x2 = 0.75 | 0.663
313.15 K, 101 kPa, x2 = 0.25 | 0.938
313.15 K, 101 kPa, x2 = 0.5 | 0.728
313.15 K, 101 kPa, x2 = 0.75 | 0.615
313.15 K, 101.3 kPa, x2 = 0.174 | 1.17
313.15 K, 101.3 kPa, x2 = 0.339 | 0.986
313.15 K, 101.3 kPa, x2 = 0.51 | 0.822
313.15 K, 101.3 kPa, x2 = 0.741 | 0.624
313.15 K, 101.3 kPa, x2 = 0.873 | 0.53
318.15 K, 101 kPa, x2 = 0.25 | 0.859
318.15 K, 101 kPa, x2 = 0.5 | 0.673
318.15 K, 101 kPa, x2 = 0.75 | 0.571
323.15 K, 101 kPa, x2 = 0.25 | 0.787
323.15 K, 101 kPa, x2 = 0.5 | 0.623
323.15 K, 101 kPa, x2 = 0.75 | 0.531

Oc1ccccc1 + CC(=O)c1ccccc1
303.15 K, 101 kPa
Conditions | viscosity [mPa·s]
x2 = 0.0901 | 4.976
x2 = 0.2182 | 4.319
x2 = 0.3102 | 3.905
x2 = 0.4048 | 3.519
x2 = 0.5083 | 3.131
x2 = 0.5936 | 2.839
x2 = 0.7241 | 2.404
x2 = 0.7583 | 2.295
x2 = 0.8846 | 1.887

COCCOCCOC + CCCCCC
viscosity [mPa·s], 101.33 kPa
Conditions | x1 = 0.1017 | x1 = 0.2006 | x1 = 0.3006 | x1 = 0.3974 | x1 = 0.4983 | x1 = 0.4984 | x1 = 0.5986 | x1 = 0.6954 | x1 = 0.8011 | x1 = 0.8957
298.15 K | 0.326 | 0.362 | 0.407 | 0.455 | – | 0.52 | 0.584 | 0.662 | 0.761 | 0.868
303.15 K | 0.31 | 0.344 | 0.385 | 0.43 | – | 0.49 | 0.548 | 0.62 | 0.71 | 0.806
308.15 K | 0.294 | 0.324 | 0.362 | 0.404 | 0.461 | – | 0.512 | 0.576 | 0.657 | 0.75
313.15 K | 0.28 | 0.308 | 0.345 | 0.383 | 0.434 | – | 0.482 | 0.541 | 0.616 | 0.699
318.15 K | 0.268 | 0.285 | 0.326 | 0.363 | 0.41 | – | 0.457 | 0.511 | 0.579 | 0.657

O=S(=O)([O-])[O-].[Li+].[Li+] + [2H]O[2H]
viscosity [mPa·s], 101 kPa
Conditions | x1 = 0.005 | x1 = 0.016 | x1 = 0.032 | x1 = 0.052
298.15 K | 1.243 | 1.74 | 2.887 | 5.343
308.15 K | 0.975 | 1.355 | 2.216 | 3.964
318.15 K | 0.802 | 1.102 | 1.77 | 3.084

COC(=O)OC + CCCCO
Conditions | viscosity [mPa·s]
293.15 K, 101 kPa, x1 = 0.05212 | 2.427
293.15 K, 101 kPa, x1 = 0.09994 | 2.071
293.15 K, 101 kPa, x1 = 0.191 | 1.611
293.15 K, 101 kPa, x1 = 0.2904 | 1.291
293.15 K, 101 kPa, x1 = 0.4109 | 1.029
293.15 K, 101 kPa, x1 = 0.4555 | 0.957
293.15 K, 101 kPa, x1 = 0.6133 | 0.775
293.15 K, 101 kPa, x1 = 0.7008 | 0.71
293.15 K, 101 kPa, x1 = 0.8063 | 0.656
293.15 K, 101 kPa, x1 = 0.907 | 0.63
293.15 K, 101 kPa, x1 = 0.9512 | 0.636
293.15 K, 101.3 kPa, x1 = 0.0518 | 2.461
293.15 K, 101.3 kPa, x1 = 0.0975 | 2.119
293.15 K, 101.3 kPa, x1 = 0.1961 | 1.586
293.15 K, 101.3 kPa, x1 = 0.3064 | 1.218
293.15 K, 101.3 kPa, x1 = 0.4108 | 1.023
293.15 K, 101.3 kPa, x1 = 0.4769 | 0.929
293.15 K, 101.3 kPa, x1 = 0.6101 | 0.794
293.15 K, 101.3 kPa, x1 = 0.7043 | 0.719
293.15 K, 101.3 kPa, x1 = 0.8043 | 0.644
293.15 K, 101.3 kPa, x1 = 0.9052 | 0.607
293.15 K, 101.3 kPa, x1 = 0.9508 | 0.605
298.15 K, 101.3 kPa, x1 = 0.0527 | 2.192
298.15 K, 101.3 kPa, x1 = 0.1009 | 1.877
298.15 K, 101.3 kPa, x1 = 0.2002 | 1.411
298.15 K, 101.3 kPa, x1 = 0.2986 | 1.127
298.15 K, 101.3 kPa, x1 = 0.3974 | 0.952
298.15 K, 101.3 kPa, x1 = 0.5039 | 0.831
298.15 K, 101.3 kPa, x1 = 0.6008 | 0.748
298.15 K, 101.3 kPa, x1 = 0.7028 | 0.673
298.15 K, 101.3 kPa, x1 = 0.8011 | 0.611
298.15 K, 101.3 kPa, x1 = 0.8965 | 0.572
298.15 K, 101.3 kPa, x1 = 0.9503 | 0.569
303.15 K, 101 kPa, x1 = 0.0494 | 1.938
303.15 K, 101 kPa, x1 = 0.1058 | 1.648
303.15 K, 101 kPa, x1 = 0.2154 | 1.256
303.15 K, 101 kPa, x1 = 0.2915 | 1.077
303.15 K, 101 kPa, x1 = 0.4086 | 0.882
303.15 K, 101 kPa, x1 = 0.5007 | 0.769
303.15 K, 101 kPa, x1 = 0.5847 | 0.697
303.15 K, 101 kPa, x1 = 0.7003 | 0.622
303.15 K, 101 kPa, x1 = 0.798 | 0.581
303.15 K, 101 kPa, x1 = 0.9065 | 0.553
303.15 K, 101 kPa, x1 = 0.9587 | 0.551
303.15 K, 101.3 kPa, x1 = 0.0249 | 2.078
303.15 K, 101.3 kPa, x1 = 0.096 | 1.666
303.15 K, 101.3 kPa, x1 = 0.1911 | 1.304
303.15 K, 101.3 kPa, x1 = 0.2998 | 1.046
303.15 K, 101.3 kPa, x1 = 0.3877 | 0.903
303.15 K, 101.3 kPa, x1 = 0.4799 | 0.787
303.15 K, 101.3 kPa, x1 = 0.5865 | 0.681
303.15 K, 101.3 kPa, x1 = 0.6907 | 0.608
303.15 K, 101.3 kPa, x1 = 0.7931 | 0.564
303.15 K, 101.3 kPa, x1 = 0.8925 | 0.547
303.15 K, 101.3 kPa, x1 = 0.9464 | 0.542
313.15 K, 101 kPa, x1 = 0.04725 | 1.542
313.15 K, 101 kPa, x1 = 0.1216 | 1.252
313.15 K, 101 kPa, x1 = 0.2016 | 1.027
313.15 K, 101 kPa, x1 = 0.2876 | 0.857
313.15 K, 101 kPa, x1 = 0.3956 | 0.712
313.15 K, 101 kPa, x1 = 0.414 | 0.693
313.15 K, 101 kPa, x1 = 0.6043 | 0.552
313.15 K, 101 kPa, x1 = 0.6975 | 0.511
313.15 K, 101 kPa, x1 = 0.8019 | 0.484
313.15 K, 101 kPa, x1 = 0.9062 | 0.477
313.15 K, 101 kPa, x1 = 0.9368 | 0.479
313.15 K, 101.3 kPa, x1 = 0.0499 | 1.536
313.15 K, 101.3 kPa, x1 = 0.0998 | 1.351
313.15 K, 101.3 kPa, x1 = 0.2234 | 1.018
313.15 K, 101.3 kPa, x1 = 0.3 | 0.88
313.15 K, 101.3 kPa, x1 = 0.3991 | 0.752
313.15 K, 101.3 kPa, x1 = 0.5054 | 0.662
313.15 K, 101.3 kPa, x1 = 0.603 | 0.598
313.15 K, 101.3 kPa, x1 = 0.6904 | 0.557
313.15 K, 101.3 kPa, x1 = 0.8009 | 0.52
313.15 K, 101.3 kPa, x1 = 0.9014 | 0.497
313.15 K, 101.3 kPa, x1 = 0.9471 | 0.494
